This note sets out measurements from a melting point compilation (Tetko et al.; mined from patent text by program, amines drawn as free bases though some values may be those of a salt).

`C=C(C)c1ccc2occ(C#N)c(=O)c2c1`: the melting point (commonly the temperature, or range, at which the solid turns liquid) lay within 142 to 144 °C.

`CN1CCCC(COc2ccc(C(=O)NN)cc2)C1` (stereo unspecified) returned a melting point of 170 to 172 °C.

In the case of `CCON=C(C(=O)OCC)C1=CSc2ccccc2S1`, the melting point was 78 to 81 °C.

Turning to `Cc1cccc(CCC(C)O)c1NC(=O)CC1c2ccccc2Oc2ccccc21` (stereo unspecified), the melting point was 167 to 168 °C.

For the molecule `CS(=O)(=O)Nc1cccc(CNC(=O)c2nc3ccccc3c(=O)[nH]2)c1`, the melting point was in the range of 240 to 248 °C.

Turning to `COCCOc1cc2ncc(C#N)c(C)c2cc1OC`, the melting point lay within 188 to 193 °C.

Molecule `Cc1ncc([N+](=O)[O-])n1CCN(CCCCN(CCn1c([N+](=O)[O-])cnc1C)CCn1c([N+](=O)[O-])cnc1C)CCn1c([N+](=O)[O-])cnc1C` registered a melting point of 194 to 196 °C.

Molecule `CCOC(=O)c1cn(C2CC2)c2nc(N3CCC(n4ccnn4)CC3)c(F)cc2c1=O` had a melting point of 213 to 214 °C.

Molecule `CNS(=O)(=O)c1cc(C(C)(C)C)cc(CNC(C)=O)c1O` came in with a melting point of 173 to 174 °C.

`CCOc1cc(C(C)C)c2c(c1)S(=O)(=O)N(CSc1ccccc1)C2=O` returned a melting point of 112 °C.

For `CCc1nc(C)c(Cc2c(O)ccc3ccccc23)[nH]1`, the melting point amounted to 166 °C.

Molecule `Cc1ccc(-c2cc3cc(C(=O)Nc4ccc(CN(C)C5CCOCC5)cc4)ccc3o2)cc1` came in with a melting point of 233 to 236 °C.

In the case of `O=C(c1sccc1-n1cccc1)N1CCCCC1`, the melting point worked out at 126 °C.

The molecule `CC(C)COc1ccc(-c2ccc3nnn(Cc4ccc5ccccc5n4)c3n2)cc1F` yielded a melting point of 115 to 157 °C.

Take `CCCNC(=O)N(C)Cc1cccc2c1C(=O)N(C1CCC(=O)NC1=O)C2=O` (stereo unspecified): the melting point lay within 210 to 212 °C.

With `Fc1ccc(C2(Cl)CN(C(c3ccccc3)c3ccccc3)C2)cc1`, the melting point lay within 108 to 109 °C.

Turning to `CC(C)CCS(=O)(=O)c1cccc(-c2nc(=O)c3ccccc3s2)n1`, the melting point lay within 146 to 147 °C.

In turn, `CCOC(=O)C1=C(C)NC(CN2C(=O)c3ccccc3C2=O)=C(C(=O)OCC)C1c1cccc(Cl)c1` (stereo unspecified) showed a melting point of 135 to 136 °C.

`O=C1c2cccc([N+](=O)[O-])c2C(=O)N1CCCCN1C(=O)c2cccc([N+](=O)[O-])c2C1=O` came in with a melting point of 245 °C.

Turning to `CC(C)(C)COc1ccc(N(CC(=O)O)C(=O)c2ccn(-c3ccc(F)cc3)c2)cc1C#N`, the melting point fell in the range of 248 to 249 °C.

In the case of `COc1ccc(O)c(NC(C)=O)c1`, the melting point was in the range of 156 to 157 °C.

Molecule `CCCNCC(O)COc1ccccc1CCCc1cccc2c1CC(=O)N2` (stereo unspecified) had a melting point of 122 °C.

In the case of `COc1ccc(C2=NN(c3ccc(C4=NNC(=O)CC4C)cc3)C(=O)C3CC=CCC23)cc1OC` (stereo unspecified), the melting point is 192 to 194 °C.

Take `COc1ccc(COC(=O)C(=CNc2ncccc2OC(=S)N(C)C)C(=O)OCc2ccc(OC)cc2)cc1`: the melting point lay in the range of 117 to 118 °C.

The molecule `CC1Cc2cc(Br)ccc2C1=O` (stereo unspecified) yielded a melting point of 55 °C.

`CC(C#N)Oc1ccc(Oc2ccc(C(F)(F)F)cc2)cc1` (stereo unspecified) gave a melting point of 53 to 56 °C.

`Nc1ccc([C@@H](O)CNC[C@H]2CCc3cc(NS(=O)(=O)c4ccc(-n5nnn(CCCC6CCCCC6)c5=O)cc4)ccc3O2)cn1` gave a melting point of 94 to 95 °C.

With `Cc1cc(=O)[nH]nc1-c1ccc2c(c1)C(C)CC(=O)N2` (stereo unspecified), the melting point was greater than 300 °C.

`O=C1NCN(c2ccccc2)C12CCN(C[C@@H]1CCc3ccccc3[C@H]1O)CC2` (relative stereo) gave a melting point of 204 to 205 °C.

Molecule `COc1cc(-c2sc3nc(N)[nH]c(=O)c3c2C)ccc1Cl` returned a melting point of 312 to 322 °C.

`C=C(C)c1cccc(-n2c(C(F)(F)F)nn(C)c2=S)c1` displayed a melting point of 64 to 66 °C.

The molecule `CON1CCC2(CC1)C(O)=C(c1c(C)cc(C)cc1C)C(=O)N2OC1CCCCC1` displayed a melting point of 115 to 118 °C.

The molecule `CC(C)(C)C(NC(=O)c1ccc(Cl)cc1)NC(=NC#N)NCc1ccncc1` (stereo unspecified) yielded a melting point of 189 to 191 °C.

`CCCCc1oc2ccccc2c1Cc1cc(I)c(OCCN(CC)CC)c(I)c1` displayed a melting point of 80 to 81 °C.

Molecule `CCC1(CO)C=NC(c2nn(Cc3ccccc3F)c3ccccc23)O1` (stereo unspecified) had a melting point of 137 to 139 °C.

The molecule `COn1c(C)nc(N2CCc3ccccc3CC2)c(C#N)c1=O` displayed a melting point of 144 to 145 °C.

`CC(C)(N)c1ccc(-c2nc(Nc3cccc(F)c3)ncc2C#N)cc1` returned a melting point of 209 °C.

`CCOC(=O)c1cn(Cc2csnn2)c2cc(F)c(F)cc2c1=O` gave a melting point of 234 to 237 °C.

`Cc1nc(NC(=O)Nc2ccc(N3CCN(C(=O)Nc4ccc(OCCO)cc4C(F)(F)F)CC3)cc2)sc1C` displayed a melting point of 166 to 167 °C.

In turn, `COc1ccc(Nc2c(N)cc(C(=O)O)cc2S(N)(=O)=O)cc1` gave a melting point of 214 °C.

In the case of `CC(=O)c1ccc(S(=O)(=O)Nc2ccc(F)cn2)cc1`, the melting point fell in the range of 151 to 152 °C.

In the case of `Clc1ncc(-c2ccsc2)cn1`, the melting point is 154 to 157 °C.

Molecule `CC(=O)C1CC2=C(CO1)C(=O)c1ccccc1C2=O` (stereo unspecified) gave a melting point of 135 to 136 °C.

With `CCCCCCC(=O)CCCC(=O)O`, the melting point is 58 to 59 °C.

With `O=C1CCC(N2C(=O)c3cccc(OCc4ccc(CN5CCN(CC(F)(F)F)CC5)cc4)c3C2=O)C(=O)N1` (stereo unspecified), the melting point fell in the range of 163 to 165 °C.

The molecule `CN(CC#Cc1ccccc1)[C@H]1CC[C@H](c2ccc3[nH]c(=O)oc3c2)CC1` gave a melting point of 249 to 252 °C.

In the case of `[N-]=[N+]=NCCOc1ccc(/C(=C(\c2ccccc2)C(F)(F)F)c2ccccc2)cc1`, the melting point lay within 110 to 118 °C.

The molecule `COc1cc(CCC=O)ccc1OCc1nc(-c2ccccc2)oc1C` showed a melting point of 80 to 81 °C.

Molecule `COc1ccccc1C1=NC(C)(C)CO1` displayed a melting point of 70 to 72 °C.

Molecule `CC(C)(C)OC(=O)/C(=C/C1CCCCC1)C(=O)c1ccccc1O` came in with a melting point of 62 to 65 °C.

Molecule `CCC[C@H]1CC[C@H]([C@H]2CC[C@H](c3ccc(C#N)cc3)CC2)CC1` came in with a melting point of 55 °C.

`CCOCc1nc2c(N)nc(C)c(C)c2n1CCCC(N)=O` had a melting point of 199 to 200 °C.

With `Cc1c(C(F)(F)F)cnn(-c2cc(OCC3CO3)c(Cl)cc2F)c1=O` (stereo unspecified), the melting point was 127 °C.

Regarding `CCCCCCCN(CCN1CCN(CCSc2nc3ccccc3o2)CC1)C(=O)Nc1c(C(C)C)cccc1C(C)C`, the melting point is 110 to 111 °C.

As for `Nc1cc2c3c(cc(N)cc3c1)C(=O)N(O)C2=O`, the melting point lay in the range of 329 to 336 °C.

`C=Cc1nc(C(=O)OC)c(Cl)c(N)c1F` returned a melting point of 68 to 71 °C.

For `O=C1Nc2ccccc2C12COc1ccc3c(c12)N(Cc1ncccc1C(F)(F)F)ON3` (stereo unspecified), the melting point fell in the range of 212 to 215 °C.

In turn, `Nc1nc(-c2ccc([N+](=O)[O-])cc2)c[nH]1` had a melting point of 235 to 240 °C.

With `Fc1cc2c(Nc3ccc(F)c(Br)c3)ncnc2cn1`, the melting point was in the range of 269 to 270 °C.

Molecule `CCn1ccc(-c2sc(NC(=O)c3ccncc3)nc2-c2ccco2)cc1=O` displayed a melting point of 245 to 248 °C.

With `OC(CCCN1CC=C(c2ccccc2)CC1)c1ccc(Cc2ccc(Cl)cc2)cc1` (stereo unspecified), the melting point lay within 108 to 111 °C.

`O=C(O)CCc1c([N+](=O)[O-])cc(O)c(O)c1[N+](=O)[O-]` yielded a melting point of 162 to 165 °C.

As to `O=C1CC2CC(Oc3nc4ccccc4[nH]3)CC2C1` (stereo unspecified), the melting point was in the range of 208 to 209 °C.

Molecule `CCOC(=O)CN(C)C1CCCN(C(=O)c2ccc(NC(=O)c3ccccc3C)cc2)c2ccccc21` (stereo unspecified) showed a melting point of 167 to 168 °C.

Regarding `Fc1cccc(F)c1-c1cncn1-c1ccc(Cl)cc1`, the melting point lay within 170 to 172 °C.

Regarding `CC(=O)NC(Cc1cc(F)c(F)cc1F)Cc1nnc2n1ccc1ncnn12` (stereo unspecified), the melting point was in the range of 233 to 235 °C.

The molecule `CC(=O)NCCCC(=O)N1CC1C#N` (stereo unspecified) came in with a melting point of 72 to 75 °C.

Consider `CCNc1nc(C)c(-c2ccnc(Nc3ccc(N4CCOCC4)c(C)c3)n2)s1`, for which the melting point was 213 to 214 °C.

The molecule `CCCCCCCC(=O)c1ccc(CCOS(=O)(=O)c2ccc(C)cc2)cc1` came in with a melting point of 59 to 60 °C.

As for `Cc1cc(SC(C)C)c(NC(=O)CSc2nc3ccccc3s2)c(SC(C)C)n1`, the melting point lay within 117 to 118 °C.

The molecule `c1ccc2nc(CSc3nc4cccc5c4n3CCC5)ccc2c1` came in with a melting point of 125 to 126 °C.

Take `Cc1nc(NC(=O)c2ccccc2)n(C)c(=O)c1CCN1CCC(=C(c2ccc(F)cc2)c2ccc(F)cc2)CC1`: the melting point is 240 °C.

`COC=C(C(=O)OC)N(C)c1nc(-c2ccc(Cl)c(Cl)c2)cs1` returned a melting point of 96 to 98 °C.

`Cc1cc(C(C)N(O)C(N)=O)c(C)s1` (stereo unspecified) registered a melting point of 146 to 147 °C.

Take `Cc1ccc(-c2cc3cc(Cl)c(Cl)cc3o2)cc1`: the melting point is 129 to 130 °C.

`COc1cc2c(cc1OC)C(C(=O)Nc1c(C(C)C)cccc1C(C)C)SCC2` (stereo unspecified) yielded a melting point of 72 to 74 °C.

Regarding `O=C(Nc1nc(CN2CCC(c3c[nH]c4ccccc34)CC2)cs1)C(F)(F)F`, the melting point is 244 to 247 °C.

In turn, `Cn1cnc(CNC(=O)c2ccnc(N3CCN(Cc4ccc(F)cc4)C3=O)c2)c1` showed a melting point of 174 to 176 °C.

As for `COc1cccc(N2CCN(CCn3c(=O)[nH]c4cscc4c3=O)CC2)c1`, the melting point lay in the range of 184 to 186 °C.

For the molecule `CCN(CC)C(=O)NC1C=C2c3cccc4[nH]c(Br)c(c34)CC2N(C)C1` (stereo unspecified), the melting point lay within 204 to 208 °C.

Regarding `Cc1ccc(C(=O)Nc2c[nH]nc2C(=O)NCCOC(C)C)cn1`, the melting point fell in the range of 168 to 169 °C.

`COc1ccc(-c2cccc3nc(Nc4cc(OC)c(OC)c(OC)c4)oc23)cc1` displayed a melting point of 179 to 182 °C.

The molecule `O=c1c2c(Cc3ccccc3C(F)(F)F)n[nH]c2c2cccnc2n1-c1cccc(C(F)(F)F)c1` had a melting point of 260 to 264 °C.

Molecule `CCOC(=O)C(=O)Nc1coc2ccccc2c1=O` registered a melting point of 146 to 148 °C.

In turn, `O=S(=O)(c1c(-c2ccc(Cl)cc2)[nH]c(SC(F)(F)F)c1Br)C(F)(F)F` registered a melting point of 122 to 125 °C.

As to `COc1ccc(-c2ncccc2C=C(Cc2cc3c(cc2OC)OCO3)C(=O)O)c(OCc2ccccc2C(=O)O)c1`, the melting point is 135 to 140 °C.
